Measurements as given in BindingDB's records for doi:10.1007/bf00168557 (Boehringer Ingelheim Italia, 1995).
Values joined by “and” are separate entries in the source; they are usually repeats but may differ in a detail not shown here. Identical values can stand only once.

What was measured:
[1] = biological target: 5-hydroxytryptamine receptor 1D (Rattus norvegicus, UniProt P28565)
[2] = biological target: T1, 5-hydroxytryptamine receptor 3A (Rattus norvegicus, UniProt P35563)
T1 sequence (P35563 whole entry): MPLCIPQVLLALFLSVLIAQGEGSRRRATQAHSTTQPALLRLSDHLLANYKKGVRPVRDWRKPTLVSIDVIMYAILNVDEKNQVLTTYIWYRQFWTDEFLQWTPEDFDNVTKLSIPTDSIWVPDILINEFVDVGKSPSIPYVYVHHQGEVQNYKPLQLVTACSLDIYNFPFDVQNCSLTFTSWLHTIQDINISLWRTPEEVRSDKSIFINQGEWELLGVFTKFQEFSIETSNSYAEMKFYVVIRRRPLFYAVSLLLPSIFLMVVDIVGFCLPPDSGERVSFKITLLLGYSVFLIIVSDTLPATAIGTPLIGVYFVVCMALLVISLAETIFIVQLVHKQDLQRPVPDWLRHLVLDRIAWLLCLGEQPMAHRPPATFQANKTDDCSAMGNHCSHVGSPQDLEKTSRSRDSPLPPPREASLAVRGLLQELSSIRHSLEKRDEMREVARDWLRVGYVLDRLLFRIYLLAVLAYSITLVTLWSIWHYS

[3] = biological target: 5-hydroxytryptamine receptor 4 (Rattus norvegicus, UniProt Q62758)
[4] = biological target: 5-hydroxytryptamine receptor 1B (Rattus norvegicus, UniProt P28564)
[5] = biological target: T2, 5-hydroxytryptamine receptor 1A (Rattus norvegicus, UniProt P19327)
T2 sequence (P19327 whole entry): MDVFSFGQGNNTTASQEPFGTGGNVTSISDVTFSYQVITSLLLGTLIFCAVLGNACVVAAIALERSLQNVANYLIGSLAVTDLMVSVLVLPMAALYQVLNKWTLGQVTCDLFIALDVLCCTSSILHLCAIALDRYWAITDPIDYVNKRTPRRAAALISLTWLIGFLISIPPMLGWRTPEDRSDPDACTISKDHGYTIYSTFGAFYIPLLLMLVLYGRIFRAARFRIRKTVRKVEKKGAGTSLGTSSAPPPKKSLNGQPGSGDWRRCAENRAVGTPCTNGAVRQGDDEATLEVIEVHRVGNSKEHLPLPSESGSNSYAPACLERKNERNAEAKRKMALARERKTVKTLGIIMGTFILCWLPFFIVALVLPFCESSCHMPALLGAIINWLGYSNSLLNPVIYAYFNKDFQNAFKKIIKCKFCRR

[6] = biological target: T3, 5-hydroxytryptamine receptor 2C (Rattus norvegicus, UniProt P08909)
T3 sequence (P08909 whole entry): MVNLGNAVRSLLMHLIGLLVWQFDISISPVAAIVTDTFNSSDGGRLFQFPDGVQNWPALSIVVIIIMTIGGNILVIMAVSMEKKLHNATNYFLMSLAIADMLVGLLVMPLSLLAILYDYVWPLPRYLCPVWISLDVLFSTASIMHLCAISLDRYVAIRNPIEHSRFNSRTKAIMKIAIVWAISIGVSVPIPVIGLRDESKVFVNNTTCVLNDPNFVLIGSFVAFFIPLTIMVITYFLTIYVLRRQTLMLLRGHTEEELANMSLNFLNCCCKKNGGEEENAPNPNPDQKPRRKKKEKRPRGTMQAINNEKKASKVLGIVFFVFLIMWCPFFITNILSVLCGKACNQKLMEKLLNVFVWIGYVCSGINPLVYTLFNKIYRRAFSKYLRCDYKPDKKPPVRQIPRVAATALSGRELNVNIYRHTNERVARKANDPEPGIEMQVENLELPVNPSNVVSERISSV

[7] = biological target: T4, Alpha-1A adrenergic receptor (Rattus norvegicus, UniProt P43140)
T4 sequence (P43140 whole entry): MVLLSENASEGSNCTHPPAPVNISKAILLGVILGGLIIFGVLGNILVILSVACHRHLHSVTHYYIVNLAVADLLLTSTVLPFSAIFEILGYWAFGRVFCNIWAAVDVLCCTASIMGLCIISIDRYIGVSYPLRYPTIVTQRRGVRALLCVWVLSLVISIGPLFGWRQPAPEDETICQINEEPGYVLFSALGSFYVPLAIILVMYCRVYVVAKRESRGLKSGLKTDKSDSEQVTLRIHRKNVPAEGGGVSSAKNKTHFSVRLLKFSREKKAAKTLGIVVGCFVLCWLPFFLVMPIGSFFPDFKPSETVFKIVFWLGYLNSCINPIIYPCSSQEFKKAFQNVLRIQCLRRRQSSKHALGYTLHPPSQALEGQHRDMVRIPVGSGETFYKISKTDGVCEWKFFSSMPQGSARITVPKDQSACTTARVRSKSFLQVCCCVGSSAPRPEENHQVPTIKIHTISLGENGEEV

Chain of 5-hydroxytryptamine receptor 4 (Q62758 whole entry): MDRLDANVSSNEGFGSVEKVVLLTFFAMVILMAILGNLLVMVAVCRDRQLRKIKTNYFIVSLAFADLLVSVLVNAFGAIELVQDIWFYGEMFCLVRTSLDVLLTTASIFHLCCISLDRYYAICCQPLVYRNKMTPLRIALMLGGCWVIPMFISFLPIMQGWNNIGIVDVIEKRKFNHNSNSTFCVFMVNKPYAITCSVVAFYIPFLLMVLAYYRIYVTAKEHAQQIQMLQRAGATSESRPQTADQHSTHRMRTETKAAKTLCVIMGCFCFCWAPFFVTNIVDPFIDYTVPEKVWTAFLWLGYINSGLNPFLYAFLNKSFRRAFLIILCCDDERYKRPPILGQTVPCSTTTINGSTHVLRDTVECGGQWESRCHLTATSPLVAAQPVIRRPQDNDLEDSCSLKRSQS
Chain of 5-hydroxytryptamine receptor 1D (P28565 whole entry): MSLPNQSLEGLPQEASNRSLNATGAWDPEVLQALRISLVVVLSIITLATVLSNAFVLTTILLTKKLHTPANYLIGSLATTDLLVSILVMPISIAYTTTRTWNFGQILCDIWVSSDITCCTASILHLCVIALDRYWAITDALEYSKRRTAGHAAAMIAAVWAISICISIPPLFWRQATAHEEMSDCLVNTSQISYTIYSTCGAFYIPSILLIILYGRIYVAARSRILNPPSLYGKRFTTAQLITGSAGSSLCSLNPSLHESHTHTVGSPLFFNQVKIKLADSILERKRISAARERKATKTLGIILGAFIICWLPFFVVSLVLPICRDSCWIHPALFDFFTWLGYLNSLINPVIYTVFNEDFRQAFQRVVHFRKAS
Chain of 5-hydroxytryptamine receptor 1B (P28564 whole entry): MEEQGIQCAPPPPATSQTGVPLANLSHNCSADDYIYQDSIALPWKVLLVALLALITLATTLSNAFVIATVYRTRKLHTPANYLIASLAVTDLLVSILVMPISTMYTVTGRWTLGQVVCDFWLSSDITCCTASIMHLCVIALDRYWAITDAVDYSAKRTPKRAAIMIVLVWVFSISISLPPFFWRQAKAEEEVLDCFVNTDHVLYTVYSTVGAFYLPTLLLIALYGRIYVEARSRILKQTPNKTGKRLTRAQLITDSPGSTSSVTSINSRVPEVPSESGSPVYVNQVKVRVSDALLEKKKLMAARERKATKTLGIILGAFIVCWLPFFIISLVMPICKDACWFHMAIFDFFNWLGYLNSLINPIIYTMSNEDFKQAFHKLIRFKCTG

**Q.** What does the source list for O=C1CC2(CCCC2)CC(=O)N1CCCCN1CCN(c2ncccn2)CC1 [BUSPAR]?
**A.** Ki [1]: > 10000 nM; Ki [2]: > 10000 nM; Ki [3]: > 10000 nM

**Q.** How did the Ki [4] turn out when O=c1[nH]c2ccccc2n1CCN1CCN(c2ccc(C(F)(F)F)cc2)CC1 [CAS_127941] was run?
**A.** 2090 nM

**Q.** What about the Ki [5] of the same compound?
**A.** 47.9 nM and 19.1 nM

**Q.** And the Ki [1]?
**A.** 2510 nM

**Q.** And the Ki [6]?
**A.** 3980 nM

**Q.** What about the Ki [2] of the same compound?
**A.** > 10000 nM

**Q.** What about the Ki [3] of the same compound?
**A.** > 10000 nM

**Q.** COc1cccc(OC)c1OCCNCC1Oc2ccccc2OC1c1ccccc1 (centres undefined) [NSC_185453] was tested. Which Ki [7] did it give?
**A.** 0.3 nM

**Q.** How did the Ki [3] turn out when CCn1c(=O)n(C(=O)NC2CC3CCC(C2)N3C)c2ccccc21 (centres undefined) [BIMU 1] was run?
**A.** 0.19 nM

**Q.** How did the Ki [2] turn out when CN1C2CCC1CC(OC(=O)c1cc(Cl)cc(Cl)c1)C2 (centres undefined) [MDL 72222] was run?
**A.** 0.8 nM

**Q.** Which results are given for CCCN(CCC)C1CCc2cccc(O)c2C1 (centres undefined)?
**A.** Ki [2]: > 10000 nM; Ki [3]: > 10000 nM
